pIC50: −log10 of the molar value.
Columns and labels:
hERG1 potassium channel = hERG1 potassium channel (Homo sapiens, UniProt Q12809); assay: in vitro
Description: Mammalian cells expressing the hERG1 potassium channel were dispensed into 384-well planar arrays and hERG tail-currents were measured by whole-cell voltage-clamping. A range of concentrations (TBD) of the test compounds were then added to the cells and a second recording of the hERG current was made. The percent change in hERG current was calculated.
The experiments were performed on an IonWorks™ FIT instrument (Molecular Devices Corporation), which automatically performs electrophysiology measurements in 48 single cells simultaneously in a specialised 384-well plate (PatchPlate™). All cell suspensions, buffers and test compound solutions were at room temperature during the experiment.
The cells used were Chinese hamster ovary (CHO) cells stably transfected with hERG (cell-line obtained from Cytomyx, UK). A single-cell suspension was prepared in extracellular solution (Dulbecco's phosphate buffered saline with calcium and magnesium pH 7-7.2) and aliquots were added automatically to each well of a PatchPlate™. The cells were then positioned over a small hole at the bottom of each well by applying a vacuum beneath the plate to form an electrical seal. The vacuum was applied through a single compartment common to all wells which were filled with intracellular solution (buffered to pH 7.2 with HEPES). The resistance of each seal was measured via a common ground-electrode in the intracellular compartment and individual electrodes placed into each of the upper wells.
Electrical access to the cell was then achieved by circulating a perforating agent, amphotericin, underneath the PatchPlate™ and then measuring the pre-compound hERG current. An electrode was positioned in the extracellular compartment and a holding potential of −80 mV for 15 sec was applied. The hERG channels were then activated by applying a depolarising step to +40 mV for 5 sec and then clamped at −50 mV for 4 sec to elicit the hERG tail current, before returning to −80 mV for 0.3 s.
A test compound was then added automatically to the upper wells of the PatchPlate™ from a 96-well microtitre plate containing a range of concentrations of each compound. Solutions were prepared by diluting DMSO solutions of the test compound into extracellular buffer. The test compound was left in contact with the cells for 300 sec before recording currents using the same voltage-step protocol as in the pre-compound scan. […] Each concentration was tested in 4 replicate wells on the PatchPlate™.
Post-compound currents were then expressed as a percentage of pre-compound currents and plotted against concentration for each compound. Where concentration-dependent inhibition is observed, the data are fitted to the following equation and an IC50 value calculated: […]
An IC50 was reported if concentration-dependent inhibition is observed. The standard error (SE) of the IC50 model and the number of data-points used to determine IC50 was also reported.

hERG channel [1] = target: T1, hERG channel (Homo sapiens, UniProt Q12809); assay: Automated patch clamp (IonFlux) on AC10 cardiomyocytes stably expressing hERG; details: for effect on hERG tail currents / electrophysiology (in words): AC10 cardiomyocytes
hERG channel [2] = target: T1, hERG channel; assay: Predictor hERG fluorescence polarization assay
Description: Compounds that bind to the hERG channel proteins were identified by their ability to displace the tracer (Predictor hERG Tracer Red) and decrease the fluorescence polarization. The Tracer Red ligand was stored in 100% DMSO and diluted to 8 nM in assay buffer (50 mM Tris-HCl, 1 mM MgCl2, 10 mM KCl, 0.05% Pluronic F127, pH 7.4, 4° C.) on the day of the experiment. Test samples and controls were diluted in assay buffer to 16 concentrations with half-log intervals. Cell membranes were removed from the −80° C. freezer and placed on ice after defrosting. Membranes working solution protein concentration was 0.3 mg/mL. […] IC50 values were derived by fitting a sigmoidal function to concentration-response data, where concentration-dependent inhibition was observed. All IC50 data were calculated and analyzed using GraphPad Prism 6 (GraphPad Software).

[3] = clinical trial, placed on clinical hold by the FDA; cited from earlier work
hERG1 = hERG1 (Homo sapiens, UniProt Q12809); assay: FluxOR potassium channel assay in HEK 293 cells stably expressing hERG1
Sequence of hERG1 (Q12809 whole entry): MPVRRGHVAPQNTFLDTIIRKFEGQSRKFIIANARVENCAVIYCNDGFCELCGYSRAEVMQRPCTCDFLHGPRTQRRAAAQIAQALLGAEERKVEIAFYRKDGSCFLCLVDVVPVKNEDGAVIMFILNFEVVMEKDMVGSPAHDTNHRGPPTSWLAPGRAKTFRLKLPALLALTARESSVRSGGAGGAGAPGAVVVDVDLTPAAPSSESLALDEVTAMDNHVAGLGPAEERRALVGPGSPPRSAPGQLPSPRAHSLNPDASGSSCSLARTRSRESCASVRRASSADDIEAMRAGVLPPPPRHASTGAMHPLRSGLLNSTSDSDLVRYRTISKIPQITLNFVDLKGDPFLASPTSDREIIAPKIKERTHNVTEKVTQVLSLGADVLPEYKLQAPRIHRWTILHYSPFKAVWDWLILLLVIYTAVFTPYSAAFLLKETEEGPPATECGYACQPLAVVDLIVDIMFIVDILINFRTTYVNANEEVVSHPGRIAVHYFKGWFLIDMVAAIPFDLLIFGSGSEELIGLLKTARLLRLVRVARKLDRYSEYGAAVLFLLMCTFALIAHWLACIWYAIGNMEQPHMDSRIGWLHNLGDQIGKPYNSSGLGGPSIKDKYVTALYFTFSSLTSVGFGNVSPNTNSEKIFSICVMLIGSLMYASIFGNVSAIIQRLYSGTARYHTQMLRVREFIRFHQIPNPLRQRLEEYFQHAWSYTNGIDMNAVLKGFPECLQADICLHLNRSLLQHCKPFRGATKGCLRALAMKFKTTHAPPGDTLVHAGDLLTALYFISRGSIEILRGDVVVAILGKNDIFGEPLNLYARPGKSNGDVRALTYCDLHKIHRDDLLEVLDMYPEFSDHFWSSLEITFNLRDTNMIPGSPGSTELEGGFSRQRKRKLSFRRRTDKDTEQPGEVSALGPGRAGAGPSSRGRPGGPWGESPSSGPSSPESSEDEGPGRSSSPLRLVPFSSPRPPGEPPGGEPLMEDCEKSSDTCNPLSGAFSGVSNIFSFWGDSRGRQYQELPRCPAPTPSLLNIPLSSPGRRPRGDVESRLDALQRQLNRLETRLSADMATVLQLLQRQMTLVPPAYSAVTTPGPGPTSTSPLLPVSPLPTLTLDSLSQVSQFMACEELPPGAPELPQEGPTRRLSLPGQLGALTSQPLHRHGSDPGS
Description: The FluxOR™ assay monitors the permeability of potassium channels to thallium (Tl^+) ions. When thallium is added to the extracellular solution with a stimulus to open channels, thallium flows down its concentration gradient into the cells, and channel or transporter activity is detected with a proprietary indicator dye that increases in cytosolic fluorescence. Accordingly, the fluorescence reported in the FluxOR™ system is an indicator of any ion channel activity or transport process that allows thallium into cells.
Briefly, FluxOR™ loading buffer was made from Hank's Balanced Saline Solution (HBSS) buffered with 20 mM HEPES and pH adjusted with NaOH to 7.4. Powerload™ concentrate and water-soluble probenecid were used as directed by the kit to enhance the dye solubility and retention, respectively. Media were removed from the cell plates manually, and 20 of loading buffer containing the FluxOR™ dye mix was applied to each well. Once inside the cell, the nonfluorescent AM ester form of the FluxOR™ dye was cleaved by endogenous esterases into a thallium-sensitive indicator. The dye was loaded for 60 min at room temperature and then removed manually. […] To each well 20 μL stimulation buffer was added and fluorescence measures were done every 1 sec for a total time of 180 sec.

Sequence of hERG1 potassium channel (Q12809 whole entry): as above
T1 sequence (Q12809 whole entry): as above

O=c1[nH]c2ccccc2n1C1CCN(CCCC(c2ccc(F)cc2)c2ccc(F)cc2)CC1 [Pimozide]
inhibition at 300 sec, 0.00032 µM (hERG1 potassium channel; human): 2.29% | inhibition at 300 sec, 0.0016 µM (hERG1 potassium channel; human): 4.56% | inhibition at 300 sec, 0.008 µM (hERG1 potassium channel; human): 5.6% | inhibition at 300 sec, 0.04 µM (hERG1 potassium channel; human): 25.1% | inhibition at 300 sec, 0.2 µM (hERG1 potassium channel; human): 9.44% | inhibition at 300 sec, 1 µM (hERG1 potassium channel; human): 83.2%

CS(=O)(=O)c1ccc(C2=C(c3ccccc3)C(=O)OC2)cc1 [rofecoxib]
pIC50 (hERG channel [1]): 4.82 | pIC50 (hERG channel [2]): 5.23

COc1nc(N)nc2c1ncn2C1O[C@H](COP(=O)(N[C@H](C)C(=O)OCC(C)(C)C)Oc2cccc3ccccc23)[C@@H](O)[C@@]1(C)O (stereo partly drawn) [BMS-986094, (2R)-neopentyl 2-(((((2R,3R,4R)-5-(2-amino-6-methoxy-9H-purin-9-yl)-3,4-dihydroxy-4-methyltetrahydrofuran-2-yl)methoxy)(naphthalen-1-yloxy)phosphoryl)amino)propanoate]
effects on QT interval prolongation in patients (in words) [3]: nine patients in a clinical trial had to be hospitalized and one of them died | block of conductance of the potassium channel (in words) (hERG1): block conductance of the potassium channel | pIC50 (hERG channel [1]): 6.57 | effect on hERG tail currents / electrophysiology (in words) (hERG channel [1]): potently blocks hERG tail currents | inhibition of the potassium channel (in words) (hERG1 potassium channel; CHO cells stably transfected with hERG): inhibit the potassium channel | inhibition at 300 sec, 0.0032 µM (hERG1 potassium channel; human): 18.2% | inhibition at 300 sec, 0.016 µM (hERG1 potassium channel; human): -4.94% | inhibition at 300 sec, 0.08 µM (hERG1 potassium channel; human): -8.97% | inhibition at 300 sec, 0.4 µM (hERG1 potassium channel; human): -5.33% | inhibition at 300 sec, 10 µM (hERG1 potassium channel; human): 23.3% | pIC50 (hERG channel [2]): 8.52

CC(=O)Oc1ccccc1C(=O)O [Aspirin, acetyl salicylic acid]
inhibition at 300 sec, 0.0032 µM (hERG1 potassium channel; human): -2.97% | inhibition at 300 sec, 0.016 µM (hERG1 potassium channel; human): -3.09% | inhibition at 300 sec, 0.08 µM (hERG1 potassium channel; human): -21% | inhibition at 300 sec, 0.4 µM (hERG1 potassium channel; human): -5.88% | inhibition at 300 sec, 2 µM (hERG1 potassium channel; human): -3.71% | inhibition at 300 sec, 10 µM (hERG1 potassium channel; human): -0.546%

Nc1nc2c(ncn2[C@@H]2O[C@H](CO)[C@@H](O)[C@H]2O)c(=O)[nH]1 [Guanosine, guanosine]
effect on hERG tail currents / electrophysiology (in words) (hERG channel [1]): none of BMS-986094 metabolites demonstrates either hERG cavity binding or electrophysiology changes | inhibition at 300 sec, 0.0032 µM (hERG1 potassium channel; human): 0.711% | inhibition at 300 sec, 0.016 µM (hERG1 potassium channel; human): 6.12% | inhibition at 300 sec, 0.08 µM (hERG1 potassium channel; human): -3.46% | inhibition at 300 sec, 0.4 µM (hERG1 potassium channel; human): 26.3% | inhibition at 300 sec, 2 µM (hERG1 potassium channel; human): 0.453% | inhibition at 300 sec, 10 µM (hERG1 potassium channel; human): 5.54% | displacement of the hERG-bound dye (in words) (hERG channel [2]): no detectable effect on hERG blockage

COc1nc(N)nc2c1ncn2[C@@H]1O[C@H](COP(=O)(N[C@@H](C)C(=O)OCC(C)(C)C)Oc2cccc3ccccc23)[C@@H](O)[C@@]1(C)O (some centres unmarked) [BMS986094]
pIC50 (hERG channel [1]): 6.57 | pIC50 (hERG channel [2]): 8.43

CC(C)NCC(O)c1ccc(NS(C)(=O)=O)cc1 (centres unmarked) [Sotalol]
inhibition at 300 sec, 0.0032 µM (hERG1 potassium channel; human): 1.69% | inhibition at 300 sec, 0.016 µM (hERG1 potassium channel; human): -0.73% | inhibition at 300 sec, 0.08 µM (hERG1 potassium channel; human): 20.4% | inhibition at 300 sec, 0.4 µM (hERG1 potassium channel; human): 10.9% | inhibition at 300 sec, 2 µM (hERG1 potassium channel; human): 1.72% | inhibition at 300 sec, 10 µM (hERG1 potassium channel; human): 0.95%
